In patent US12503452B2 (Curza Global, LLC, priority 2019, dated 2025):
Structures can show the parent of a compound that is named as a salt. Where two headings read alike, the source gives them in different places.

What was measured:
[1] = tested on: E. coli S30 extract (bacterial protein synthesis); experiment: E. coli S30 extract coupled transcription-translation luciferase assay (inhibition of bacterial protein synthesis); type: biochemical; settings: read-out: S30 IC50 (μM/% inhib.)
How it was run: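 Luminescent read-out of luciferase made from pBESTluc DNA by E. coli S30 extract after 1 h at 37 °C with compound in an 8-point 2-fold series. Background came from no-DNA reactions. Percent inhibition was calculated against water-only controls.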

[2] = biological target: Rabbit Reticulocyte Lysate (eukaryotic protein synthesis); experiment: Rabbit reticulocyte lysate luciferase assay (inhibition of eukaryotic protein synthesis); type: biochemical; settings: read-out: Rabbit reticulocyte IC50 (μM/% inhib.)
How it was run: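 Compounds were tested in 8-point 2-fold dilution series for blocking luciferase synthesis in nuclease-treated rabbit reticulocyte lysate (30° C., 90 minutes). Luminescence read-out, corrected by no-RNA background, was expressed as % inhibition against water-only reactions.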

A. baumannii (Ab) = experiment: Broth microdilution minimum inhibitory concentration (MIC); type: cell-based; settings: for MIC: Acinetobacter baumannii, read-out: Ab + bicarb MIC
Description: (§1) A certified BSL-2 laboratory was used for testing. Compounds were evaluated using the broth microdilution minimum inhibitory concentration (MIC) and minimum bactericidal concentration (MBC) assays defined by Clinical and Laboratory Standards Institute (CLSI) in the M26-A guideline against S. aureus (Sa), E. coli (Ec), K. pneumoniae (Kp), A. baumannii (Ab), E. faecalis (Ef) and P. aeruginosa (Pa).
(§2) MICs were determined using the Clinical Laboratory and Standards Institute (CLSI) Broth Microdilution Method with slight modification. Clinical and Laboratory Standards Institute (2012). “Methods for dilution antimicrobial susceptibility tests for bacteria that grow aerobically; approved standard, 9th ed. M07-A9. Clinical and Laboratory Standards Institute, Wayne, PA” Serial two-fold dilutions of compounds are prepared in sterile clear round-bottom 96-well plates.
(§3) To prepare microdilution trays, two-fold dilutions of antimicrobial agent are prepared in growth medium: Cation-Adjusted Mueller-Hinton Broth (CAMHB), or CAMHB supplemented with sodium bicarbonate (6.25 or 25 mM final concentration prepared from a 1.0M stock solution) or CAMHB supplemented with heat inactivated human serum (Fisher Cat. #BP2657100) 0-50% by adding 200 μL of the highest concentration to be tested (64 μg/mL, for example) in row A, mixing and transferring 100 μL from row A to 100 μL growth medium in row B, then repeating the mixing and transferring through row H of the 96-well plate, discarding the excess 100 μL remaining. This slight modification to the CLSI protocol enables evaluation of MICs for 3 compounds per plate in triplicate, albeit with only 8 compound dilutions (CLSI protocol enables 2 compounds in triplicate with 10 dilutions). Bacterial suspensions are added to a final concentration of 5×10^4 CFU/well by adding 5 μL of a 1:10 dilution of a 0.5 McFarland suspension (1×10^8 CFU/mL) for each bacterium evaluated. Bacterial suspensions were prepared using the growth method described by CLSI. Well-isolated colonies (3-5 from an agar plate) were selected using a sterile loop and used to inoculate a tube containing 4 mL of CAMHB. The cultures are incubated at 35±2° C. until it achieves or exceeds the turbidity of the 0.5 McFarland standard, determined by measuring A600nm (usually two to six hours). When growth exceeds a 0.5 McFarland standard, the turbidity is adjusted with broth to be equivalent to a 0.5 McFarland standard.

E. coli (Ec) = experiment: as above; type: cell-based; settings: for MIC: Escherichia coli, read-out: E. coli + bicarb MIC
Description: as §1, §2, §3

E. faecalis (Ef) = experiment: as above; type: cell-based; settings: for MIC: Enterococcus faecalis, read-out: Ef + bicarb MIC
Description: as §1, §2, §3

P. aeruginosa (Pa) = experiment: as above; type: cell-based; settings: for MIC: Pseudomonas aeruginosa, read-out: Pa MIC + bicarb
Description: as §1, §2, §3

S. aureus (Sa) = experiment: as above; type: cell-based; settings: for MIC: Staphylococcus aureus, read-out: Sa + bicarb MIC
Description: as §1, §2, §3

[3] = class by IC50 or % inhibition @ 1 μM
[4] = A. baumannii, growth medium with sodium bicarbonate
[5] = E. coli, growth medium with sodium bicarbonate
[6] = E. faecalis, growth medium with sodium bicarbonate
[7] = P. aeruginosa, growth medium with sodium bicarbonate
[8] = S. aureus, growth medium with sodium bicarbonate
[9] = A. baumannii, growth medium supplemented with sodium bicarbonate
[10] = E. coli, growth medium supplemented with sodium bicarbonate
[11] = E. faecalis, growth medium supplemented with sodium bicarbonate
[12] = P. aeruginosa, growth medium supplemented with sodium bicarbonate
[13] = S. aureus, growth medium supplemented with sodium bicarbonate

SMILES | IC50 [1, 3] | IC50 [2, 3] | MIC (A. baumannii (Ab); [4]) | MIC (E. coli (Ec); [5]) | MIC (E. faecalis (Ef); [6]) | MIC (S. aureus (Sa); [8]) | MIC (P. aeruginosa (Pa); [7]) | other results
CC1C[C@@H](NCc2ccc(-n3ccc(NC(=O)N4CCN(C(=O)C(C)(C)N)CC4)nc3=O)cc2)CC[C@@H]1N (stereo partly shown) [Compound 335, hydrochloride salt] | < 0.5 µM | > 1 µM |  |  |  |  |  | MIC (A. baumannii (Ab)): > 32 mg/L; MIC (E. coli (Ec)): < 8 mg/L; MIC (E. faecalis (Ef)): > 32 mg/L; MIC (P. aeruginosa (Pa)): > 32 mg/L; MIC (S. aureus (Sa)): < 8 mg/L
CC(Cc1ccc(-n2ccc(NC(=O)N3CCN(C(=O)C(C)(C)N)CC3)nc2=O)cc1)N(C)[C@H]1CC[C@@H](N)CC1 (stereo partly shown) [Compound 175] | < 0.5 µM | > 1 µM | > 32 mg/L | < 8 mg/L | < 8 mg/L | < 8 mg/L |  | Pa MIC + bicarb (P. aeruginosa (Pa); [7]): ++ (An MIC value (μg/mL) that is 8 μg/mL or greater and less than 32 μg/mL)
CC(C)(N)C(=O)N1CCN(C(=O)Nc2ccn(-c3ccc(CN(CCO)[C@H]4CC[C@H](N)CC4)cc3)c(=O)n2)CC1 [Compound 132] | < 0.5 µM | > 1 µM |  |  |  |  |  | MIC (A. baumannii (Ab); [9]): > 32 mg/L; MIC (E. coli (Ec); [10]): < 8 mg/L; MIC (E. faecalis (Ef); [11]): > 32 mg/L; MIC (P. aeruginosa (Pa); [12]): > 32 mg/L; MIC (S. aureus (Sa); [13]): < 8 mg/L
CCN(Cc1ccc(-n2ccc(NC(=O)N3CCN(C(=O)C(C)(C)N)CC3)nc2=O)cc1C)C1CCC(N)CC1 (stereo not shown) [Compound 285] | < 0.5 µM | > 1 µM | < 8 mg/L | < 8 mg/L | < 8 mg/L | < 8 mg/L | 8 to 32 mg/L | 
CC(N)C1CCN(Cc2ccc(-n3ccc(NC(=O)N4CCN(C(=O)C(C)(C)N)CC4)nc3=O)cc2)CC1 (stereo not shown) [Compound 299, hydrochloride salt] |  | > 1 µM |  |  |  |  |  | IC50 ([1]; class by IC50 or % inhibition @ 1 μM, hydrochloride salt): 0.5 to 1 µM; Ab + bicarb MIC (A. baumannii (Ab); [4]): + (An MIC value (μg/mL) that is 32 μg/mL or greater); E. coli + bicarb MIC (E. coli (Ec); [5]): +++ (An MIC value (μg/mL) that is less than 8 μg/mL); Ef + bicarb MIC (E. faecalis (Ef); E. faecalis, growth medium with sodium bicarbonate, hydrochloride salt): ++ (An MIC value (μg/mL) that is 8 μg/mL or greater and less than 32 μg/mL); Pa MIC + bicarb (P. aeruginosa (Pa); [7]): + (An MIC value (μg/mL) that is 32 μg/mL or greater); Sa + bicarb MIC (S. aureus (Sa); [8]): +++ (An MIC value (μg/mL) that is less than 8 μg/mL)
CC(Cc1ccc(-n2ccc(NC(=O)N3CCN(C(=O)C(C)(C)N)CC3)nc2=O)cc1)N1CCC(N)CC1 (stereo not shown) [Compound 169] | < 0.5 µM | > 1 µM | 8 to 32 mg/L | < 8 mg/L | < 8 mg/L | < 8 mg/L | 8 to 32 mg/L | 
CC(C)(N)C(=O)N1CCN(C(=O)Nc2ccn(-c3ccc(CCN[C@@H]4CC[C@H](N)C4)cc3)c(=O)n2)CC1 [Compound 181] | < 0.5 µM | > 1 µM | > 32 mg/L | < 8 mg/L | 8 to 32 mg/L | < 8 mg/L | > 32 mg/L | 
CC(C)(N)C(=O)N1CCN(C(=O)Nc2ccn(-c3ccc(CNCC4CC(N)C4)cc3)c(=O)n2)CC1 (stereo not shown) [Compound 126] | < 0.5 µM | > 1 µM |  |  |  |  |  | MIC (A. baumannii (Ab); [9]): > 32 mg/L; MIC (E. coli (Ec); [10]): < 8 mg/L; MIC (E. faecalis (Ef); [11]): > 32 mg/L; MIC (P. aeruginosa (Pa); [12]): > 32 mg/L; MIC (S. aureus (Sa); [13]): 8 to 32 mg/L
C[C@@](N)(CO)C(=O)N1CCN(C(=O)Nc2ccn(-c3ccc(CCN4CCC(N)CC4)cc3)c(=O)n2)CC1 [Compound 199] | < 0.5 µM | > 1 µM | > 32 mg/L | < 8 mg/L | > 32 mg/L | 8 to 32 mg/L | > 32 mg/L | 
CC(CN1CC[C@@H](CN)C1)Oc1ccc(-n2ccc(NC(=O)N3CCN(C(=O)C(C)(C)N)CC3)nc2=O)cc1 (stereo partly shown) [Compound 185] | < 0.5 µM | > 1 µM | > 32 mg/L | < 8 mg/L | 8 to 32 mg/L | < 8 mg/L | > 32 mg/L | 
CCN(Cc1ccc(-n2ccc(NC(=O)N3CCN(C(=O)[C@@H](C)N)CC3)nc2=O)cc1)C1CCC(N)CC1 (stereo partly shown) [Compound 358] |  |  | > 32 mg/L | < 8 mg/L | 8 to 32 mg/L | < 8 mg/L | > 32 mg/L | IC50 ([1]; % inhibition @ 1 μM): 0.5 to 1 µM; IC50 ([2]; % inhibition @ 1 μM): > 1 µM
CCN(Cc1ccc(-n2ccc(NC(=O)N3CCN(C(=O)C(C)(C)N)C[C@H]3C)nc2=O)cc1)C1CCC(N)CC1 (stereo partly shown) [Compound 275] | < 0.5 µM | > 1 µM | < 8 mg/L | < 8 mg/L | < 8 mg/L | < 8 mg/L | 8 to 32 mg/L | 
CC(C)(N)C(=O)N1CCN(C(=O)Nc2ccn(-c3ccc(CCN4CCC[C@H](CN)C4)cc3)c(=O)n2)CC1 [Compound 26] | < 0.5 µM | > 1 µM |  |  |  |  |  | MIC (A. baumannii (Ab); [9]): > 32 mg/L; MIC (E. coli (Ec); [10]): < 8 mg/L; MIC (E. faecalis (Ef); [11]): 8 to 32 mg/L; MIC (P. aeruginosa (Pa); [12]): > 32 mg/L; MIC (S. aureus (Sa); [13]): < 8 mg/L
CC(N)C1CCN(CCc2cccc(-n3ccc(NC(=O)N4CCN(C(=O)C(C)(C)N)CC4)nc3=O)c2)CC1 (stereo not shown) [Compound 34] | < 0.5 µM | > 1 µM |  |  |  |  |  | MIC (A. baumannii (Ab); [9]): > 32 mg/L; MIC (E. coli (Ec); [10]): < 8 mg/L; MIC (E. faecalis (Ef); [11]): < 8 mg/L; MIC (P. aeruginosa (Pa); [12]): > 32 mg/L; MIC (S. aureus (Sa); [13]): < 8 mg/L
CC(C)(N)C(=O)N1CCN(C(=O)Nc2ccn(-c3ccc(CN(C4CC4)[C@H]4CC[C@H](N)CC4)cc3)c(=O)n2)CC1 [Compound 348, hydrochloride salt] |  |  |  |  |  |  |  | IC50 ([1]; % inhibition @ 1 μM): < 0.5 µM; IC50 ([2]; % inhibition @ 1 μM): > 1 µM; MIC (A. baumannii (Ab)): > 32 mg/L; MIC (E. coli (Ec)): < 8 mg/L; MIC (E. faecalis (Ef)): > 32 mg/L; MIC (P. aeruginosa (Pa)): > 32 mg/L; MIC (S. aureus (Sa)): 8 to 32 mg/L
CC(CN1CCC[C@H](N)CC1)c1ccc(-n2ccc(NC(=O)N3CCN(C(=O)C(C)(C)N)CC3)nc2=O)cc1 (stereo partly shown) [Compound 290] | 0.5 to 1 µM | > 1 µM | < 8 mg/L | < 8 mg/L | < 8 mg/L | < 8 mg/L | > 32 mg/L | 
CCN(Cc1ccc(-n2ccc(NC(=O)N3CCN(C(=O)C(C)(C)N)CC3)nc2=O)cc1Cl)C1CCC(N)CC1 (stereo not shown) [Compound 273] | < 0.5 µM | > 1 µM | < 8 mg/L | < 8 mg/L | < 8 mg/L | < 8 mg/L | 8 to 32 mg/L | 
CC(C)(N)C(=O)N1CCN(C(=O)Nc2ccn(-c3ccc(CCN4CCCC(N)CC4)c(F)c3)c(=O)n2)CC1 (stereo not shown) [Compound 141] | < 0.5 µM | > 1 µM |  |  |  |  |  | MIC (A. baumannii (Ab); [9]): > 32 mg/L; MIC (E. coli (Ec); [10]): < 8 mg/L; MIC (E. faecalis (Ef); [11]): < 8 mg/L; MIC (P. aeruginosa (Pa); [12]): 8 to 32 mg/L; MIC (S. aureus (Sa); [13]): < 8 mg/L
NC1CCCN(CCc2ccc(-n3ccc(NC(=O)N4CC5(CCC5N)C4)nc3=O)cc2)CC1 (stereo not shown) [Compound 195] | 0.5 to 1 µM | > 1 µM | > 32 mg/L | > 32 mg/L | > 32 mg/L | 8 to 32 mg/L | > 32 mg/L | 
C[C@H]1CN(Cc2ccc(-n3ccc(NC(=O)N4CCN(C(=O)C(C)(C)N)CC4)nc3=O)cc2)CC[C@H]1N (stereo in doubt) [Compound 297, hydrochloride salt] | 0.5 to 1 µM | > 1 µM |  |  |  |  |  | MIC (E. coli (Ec)): < 8 mg/L; MIC (E. faecalis (Ef)): 8 to 32 mg/L; MIC (P. aeruginosa (Pa)): > 32 mg/L; MIC (S. aureus (Sa)): < 8 mg/L
